Measured values as given in patent publication US20240050428A1 (Cullgen (Shanghai), Inc., priority 2020, published 2024).
pIC50: −log10 of the molar value. Like-named read-outs stand apart in the source and are kept apart here.

Legend:
MOLM-13 cells = experiment: Cell viability assay (CellTiter-Glo) in MOLM-13 cells, alone or with gilteritinib; assay type: cell-based; settings: Homo sapiens, MOLM-13 cells, three days, CellTiter-Glo
MV4;11 cells = experiment: Cell viability assay (CellTiter-Glo) in MV4;11 cells, alone or with gilteritinib; assay type: cell-based; settings: Homo sapiens, MV4;11 cells, three days, CellTiter-Glo, read-out: MV4
[1] = MOLM-13, 72 h, compound alone (without gilteritinib), read-out: MOLM-13 IC50
[2] = MOLM-13, 72 h, with gilteritinib 20 nM, read-out: MOLM-13 IC50 gilteritinib
[3] = MV4-11, 72 h, compound alone (without gilteritinib), 11 IC50
[4] = MV4-11, 72 h, with gilteritinib 10 nM, 11 IC50 gilteritinib
[5] = 72 h, compound alone (without gilteritinib), read-out: MOLM-13 IC50
[6] = 72 h, with gilteritinib 20 nM, read-out: MOLM-13 IC50 gilteritinib
[7] = 72 h, compound alone (without gilteritinib), 11 IC50
[8] = 72 h, with gilteritinib 10 nM, 11 IC50 gilteritinib

SMILES	pIC50 (MOLM-13 cells; [1])	pIC50 (MOLM-13 cells; [2])	pIC50 (MV4;11 cells; [3])	pIC50 (MV4;11 cells; [4])	pIC50 (MOLM-13 cells; [5])	pIC50 (MOLM-13 cells; [6])	pIC50 (MV4;11 cells; [7])	pIC50 (MV4;11 cells; [8])
O=C1CCC(N2C(=O)c3ccc(NC[C@H]4C[C@H](n5cc(-c6cc7[nH]cnc7cn6)c(C6CC6)n5)C4)cc3C2=O)C(=O)N1 (stereo partly drawn) [GS-307, 5-(((trans-3-(3-Cyclopropyl-4-(1H-imidazo[4,5-c]pyridin-6-yl)-1H-pyrazol-1-yl)cyclobutyl)methyl)amino)-2-(2,6-dioxopiperidin-3-yl)isoindoline-1,3-dione]	6.00 to 7.00	7.00 to 8.00	6.00 to 7.00	7.00 to 8.00	–	–	–	–
O=C1CCC(N2C(=O)c3ccc(NC[C@H]4C[C@H](n5cc(-c6ccc7c(n6)CCCC7)c(C6CC6)n5)C4)cc3C2=O)C(=O)N1 (stereo partly drawn) [GS-308, 5-(((trans-3-(3-Cyclopropyl-4-(5,6,7,8-tetrahydroquinolin-2-yl)-1H-pyrazol-1-yl)cyclobutyl)methyl)amino)-2-(2,6-dioxopiperidin-3-yl)isoindoline-1,3-dione]	7.00 to 8.00	> 8.00	7.00 to 8.00	> 8.00	–	–	–	–
O=C1CCC(N2C(=O)c3ccc(NC[C@H]4C[C@H](n5cc(-c6nccc7nccnc67)c(C6CC6)n5)C4)cc3C2=O)C(=O)N1 (stereo partly drawn) [GS-309, 5-(((trans-3-(3-Cyclopropyl-4-(pyrido[3,4-b]pyrazin-5-yl)-1H-pyrazol-1-yl)cyclobutyl)methyl)amino)-2-(2,6-dioxopiperidin-3-yl)isoindoline-1,3-dione]	> 8.00	> 8.00	> 8.00	> 8.00	–	–	–	–
O=C1CCC(N2C(=O)c3ccc(NC[C@H]4C[C@H](n5cc(-c6nccc7cn[nH]c67)c(C6CC6)n5)C4)cc3C2=O)C(=O)N1 (stereo partly drawn) [GS-310, 5-(((trans-3-(3-Cyclopropyl-4-(1H-pyrazolo[3,4-c]pyridin-7-yl)-1H-pyrazol-1-yl)cyclobutyl)methyl)amino)-2-(2,6-dioxopiperidin-3-yl)isoindoline-1,3-dione]	6.00 to 7.00	7.00 to 8.00	7.00 to 8.00	7.00 to 8.00	–	–	–	–
O=C1CCC(N2C(=O)c3ccc(NCCC[C@H]4C[C@H](n5cc(-c6ncccc6Cl)cn5)C4)cc3C2=O)C(=O)N1 (stereo partly drawn) [GS-311, 5-((3-(trans-3-(4-(3-Chloropyridin-2-yl)-1H-pyrazol-1-yl)cyclobutyl)propyl)amino)-2-(2,6-dioxopiperidin-3-yl)isoindoline-1,3-dione]	< 6.00	7.00 to 8.00	7.00 to 8.00	> 8.00	–	–	–	–
O=C(CCn1cc(-c2cnc3ccccc3n2)c(C2CC2)n1)NCc1ccc2c(c1)C(=O)N(C1CCC(=O)NC1=O)C2=O (centres unmarked) [GS-312, 3-(3-Cyclopropyl-4-(quinoxalin-2-yl)-1H-pyrazol-1-yl)-N-((2-(2,6-dioxopiperidin-3-yl)-1,3-dioxoisoindolin-5-yl)methyl)propanamide]	–	–	–	–	< 6.00	< 6.00	< 6.00	< 6.00
O=C1CCC(N2C(=O)c3ccc(CNCCCn4cc(-c5cnc6ccccc6n5)c(C5CC5)n4)cc3C2=O)C(=O)N1 (centres unmarked) [GS-313, 5-(((3-(3-Cyclopropyl-4-(quinoxalin-2-yl)-1H-pyrazol-1-yl)propyl)amino)methyl)-2-(2,6-dioxopiperidin-3-yl)isoindoline-1,3-dione]	< 6.00	< 6.00	< 6.00	< 6.00	–	–	–	–
CN1CCN(c2ccc3nc(-c4cn([C@H]5C[C@H](CNc6ccc7c(c6)C(=O)N(C6CCC(=O)NC6=O)C7=O)C5)nc4C4CC4)cnc3c2)CC1 (stereo partly drawn) [GS-314, 5-(((trans-3-(3-Cyclopropyl-4-(6-(4-methylpiperazin-1-yl)quinoxalin-2-yl)-1H-pyrazol-1-yl)cyclobutyl)methyl)amino)-2-(2,6-dioxopiperidin-3-yl)isoindoline-1,3-dione]	7.00 to 8.00	> 8.00	7.00 to 8.00	> 8.00	–	–	–	–
O=C1CCC(N2C(=O)c3ccc(NCCCCCCn4cc(-c5cnc6cccc(Br)c6n5)cn4)cc3C2=O)C(=O)N1 (centres unmarked) [GS-315, 5-((6-(4-(8-Bromoquinoxalin-2-yl)-1H-pyrazol-1-yl)hexyl)amino)-2-(2,6-dioxopiperidin-3-yl)isoindoline-1,3-dione]	6.00 to 7.00	7.00 to 8.00	7.00 to 8.00	> 8.00	–	–	–	–
O=C(CN1CCC(n2cc(-c3cnc4ccccc4n3)cn2)CC1)NCCCNc1ccc2c(c1)C(=O)N(C1CCC(=O)NC1=O)C2=O (centres unmarked) [GS-316, N-(3-((2-(2,6-Dioxopiperidin-3-yl)-1,3-dioxoisoindolin-5-yl)amino)propyl)-2-(4-(4-(quinoxalin-2-yl)-1H-pyrazol-1-yl)piperidin-1-yl)acetamide]	< 6.00	6.00 to 7.00	< 6.00	< 6.00	–	–	–	–
O=C(CN1CCC(n2cc(-c3ccc4ccccc4n3)cn2)CC1)NCCCNc1ccc2c(c1)C(=O)N(C1CCC(=O)NC1=O)C2=O (centres unmarked) [GS-317, N-(3-((2-(2,6-Dioxopiperidin-3-yl)-1,3-dioxoisoindolin-5-yl)amino)propyl)-2-(4-(4-(quinolin-2-yl)-1H-pyrazol-1-yl)piperidin-1-yl)acetamide]	< 6.00	6.00 to 7.00	< 6.00	< 6.00	–	–	–	–
O=C1CCC(N2C(=O)c3ccc(NCCCC(=O)N4CCN(c5ccccn5)CC4)cc3C2=O)C(=O)N1 (centres unmarked) [GS-318, 2-(2,6-Dioxopiperidin-3-yl)-5-((4-oxo-4-(4-(pyridin-2-yl)piperazin-1-yl)butyl)amino)isoindoline-1,3-dione]	–	–	–	–	< 6.00	7.00 to 8.00	6.00 to 7.00	7.00 to 8.00
O=C1CCC(N2C(=O)c3ccc(NCCCC(=O)N4CCN(c5ccccc5)CC4)cc3C2=O)C(=O)N1 (centres unmarked) [GS-319, 2-(2,6-Dioxopiperidin-3-yl)-5-((4-oxo-4-(4-phenylpiperazin-1-yl)butyl)amino)isoindoline-1,3-dione]	–	–	–	–	< 6.00	7.00 to 8.00	< 6.00	< 6.00
CN(c1ccccc1)C1CCN(CC(=O)NCCNc2ccc3c(c2)C(=O)N(C2CCC(=O)NC2=O)C3=O)CC1 (centres unmarked) [GS-320]	–	–	–	–	< 6.00	6.00 to 7.00	< 6.00	< 6.00
CN(c1ccccn1)C1CCN(CC(=O)NCCNc2ccc3c(c2)C(=O)N(C2CCC(=O)NC2=O)C3=O)CC1 (centres unmarked) [GS-321, N-(2-((2-(2,6-Dioxopiperidin-3-yl)-1,3-dioxoisoindolin-5-yl)amino)ethyl)-2-(4-(methyl(pyridin-2-yl)amino)piperidin-1-yl)acetamide]	< 6.00	6.00 to 7.00	< 6.00	< 6.00	–	–	–	–
CN(c1ccc2[nH]ccc2n1)C1CCN(CC(=O)NCCNc2ccc3c(c2)C(=O)N(C2CCC(=O)NC2=O)C3=O)CC1 (centres unmarked) [GS-322, N-(2-((2-(2,6-Dioxopiperidin-3-yl)-1,3-dioxoisoindolin-5-yl)amino)ethyl)-2-(4-(methyl(1H-pyrrolo[3,2-b]pyridin-5-yl)amino)piperidin-1-yl)acetamide]	< 6.00	< 6.00	< 6.00	< 6.00	–	–	–	–
O=C1CCC(N2C(=O)c3ccc(NCCCCC(=O)N4CCC(n5cc(-c6cnc7ccccc7n6)cn5)CC4)cc3C2=O)C(=O)N1 (centres unmarked) [GS-323, 2-(2,6-Dioxopiperidin-3-yl)-5-((5-oxo-5-(4-(4-(quinoxalin-2-yl)-1H-pyrazol-1-yl)piperidin-1-yl)pentyl)amino)isoindoline-1,3-dione]	< 6.00	> 8.00	6.00 to 7.00	> 8.00	–	–	–	–
